Active and inactive are the calls of the source.
Tests used:
[1] = molecular target: T1, Protein RecA (Mycobacterium tuberculosis, UniProt P9WHJ3); experiment: Fluorescence Cell-Free Homogeneous Dose Retest to Identify Inhibitors of RecA-Intein Splicing Activity. [Related pubchem assays (depositor defined):AID2097, AID2223, AID489010, AID492950]; type: functional
T1 sequence (P9WHJ3 whole entry): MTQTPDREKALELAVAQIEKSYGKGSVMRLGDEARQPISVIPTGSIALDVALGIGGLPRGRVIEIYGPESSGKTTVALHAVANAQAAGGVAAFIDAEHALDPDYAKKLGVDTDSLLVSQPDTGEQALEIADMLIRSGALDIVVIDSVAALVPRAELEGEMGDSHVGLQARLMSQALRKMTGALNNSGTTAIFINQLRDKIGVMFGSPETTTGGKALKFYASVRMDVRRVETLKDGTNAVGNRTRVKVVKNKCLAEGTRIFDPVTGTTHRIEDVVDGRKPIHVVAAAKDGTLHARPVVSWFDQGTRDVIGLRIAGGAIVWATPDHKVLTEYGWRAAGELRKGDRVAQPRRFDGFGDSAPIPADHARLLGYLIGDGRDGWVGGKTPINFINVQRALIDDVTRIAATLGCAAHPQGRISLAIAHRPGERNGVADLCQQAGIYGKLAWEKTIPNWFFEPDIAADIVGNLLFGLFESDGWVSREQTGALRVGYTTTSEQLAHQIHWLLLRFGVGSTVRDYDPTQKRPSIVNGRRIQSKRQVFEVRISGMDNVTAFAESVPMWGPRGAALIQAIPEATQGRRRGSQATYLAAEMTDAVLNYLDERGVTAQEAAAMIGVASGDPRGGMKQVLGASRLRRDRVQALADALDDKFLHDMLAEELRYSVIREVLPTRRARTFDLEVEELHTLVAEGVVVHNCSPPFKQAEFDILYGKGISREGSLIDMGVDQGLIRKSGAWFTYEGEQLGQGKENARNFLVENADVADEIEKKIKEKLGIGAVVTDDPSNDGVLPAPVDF

[2] = molecular target: T2, Serine/threonine-protein phosphatase (Candida dubliniensis (strain CD36 / CBS 7987 / NCPF 3949 / NRRLY-17841) (Yeast), UniProt B9W6M3); experiment: blockers of CaCl2-induced CDRE-lacZ signaling – S. cerevisiae, luminescence, secondary, dose response (AID 2388); type: functional, cell-based;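 further: yeast reporter cells carrying a calcineurin-responsive lacZ construct stimulated with calcium chloride; luminescent beta-galactosidase reporter signal in whole cells rather than isolated phosphatase activity; potency for inhibition where a drop in reporter signal means calcineurin blockade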
T2 sequence (B9W6M3 whole entry): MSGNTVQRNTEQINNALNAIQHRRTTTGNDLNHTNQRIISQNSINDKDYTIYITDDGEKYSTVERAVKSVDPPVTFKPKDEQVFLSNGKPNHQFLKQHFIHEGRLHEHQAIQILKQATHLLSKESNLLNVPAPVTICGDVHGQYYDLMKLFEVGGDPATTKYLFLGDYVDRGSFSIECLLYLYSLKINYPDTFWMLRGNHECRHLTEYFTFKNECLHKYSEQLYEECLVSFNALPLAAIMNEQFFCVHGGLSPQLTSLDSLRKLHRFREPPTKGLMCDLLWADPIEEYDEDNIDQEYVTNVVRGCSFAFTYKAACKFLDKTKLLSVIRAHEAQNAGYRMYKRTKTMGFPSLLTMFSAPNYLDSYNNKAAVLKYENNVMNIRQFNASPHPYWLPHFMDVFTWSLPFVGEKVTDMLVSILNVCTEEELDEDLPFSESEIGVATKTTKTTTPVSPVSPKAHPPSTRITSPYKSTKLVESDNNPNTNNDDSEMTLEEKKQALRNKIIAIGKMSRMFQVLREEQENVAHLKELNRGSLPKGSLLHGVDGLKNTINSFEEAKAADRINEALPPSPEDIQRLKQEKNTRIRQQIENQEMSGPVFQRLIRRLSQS

[3] = cells; type: functional, cell-based
[4] = Trypanosoma cruzi growth suppression in host cells – NIH3T3 host cells, beta-gal luminescence, confirmation (AID 2044); type: functional, cell-based;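 further: intracellular parasites grown in NIH/3T3 mouse fibroblasts as host cells; luminescent beta-galactosidase reporter signal from transgenic T. cruzi replicating inside host cells; inhibitors lower the luminescence signal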
[5] = loss of viability in HepG2 cells – cell-based, CellTiter-Glo, cherry-picked, cytotoxicity control for Shn3 inhibitor project, dose response (AID 624134); type: functional
[6] = NIH-3T3 fibroblast cytotoxicity, dose response, cytotoxicity control, cell-based, fluorescence, Alamar Blue, secondary assay (AID 2327); type: functional;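 further: NIH-3T3 mouse fibroblasts cultured with fluconazole at 8 µg/mL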
[7] = Luminescence-based dose response cell-based high throughput screening assay for cytotoxic compounds using the IEC-6 intestinal epithelial cell line. [Related pubchem assays: 1858 (Summary AID.), 1825 (Counterscreen.), 1907 (Confirmation screen.)]; type: functional
[8] = molecular target: Vascular endothelial growth factor receptor 2 (Homo sapiens, UniProt P35968); type: functional
[9] = molecular target: Fibroblast growth factor receptor 1 (Homo sapiens, UniProt P11362); type: functional
[10] = molecular target: Dual specificity tyrosine-phosphorylation-regulated kinase 1B (Homo sapiens, UniProt Q9Y463); experiment: Navigating the Kinome. Panel member name: DYRK1B; type: functional
[11] = molecular target: Cyclin-dependent kinase 5 (Homo sapiens, UniProt Q00535); type: functional;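 further: CDK5 measured as one member of a kinase profiling panel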
[12] = molecular target: Mitogen-activated protein kinase kinase kinase kinase 2 (Homo sapiens, UniProt Q12851); type: functional;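 further: measured as one member of a kinome-wide kinase panel, with MAP4K2 as the panel entry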
[13] = molecular target: Mitogen-activated protein kinase 14 (Homo sapiens, UniProt Q16539); type: functional;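 further: part of a kinome-wide panel, MAPK14 entry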
[14] = molecular target: Vascular endothelial growth factor receptor 1 (Homo sapiens, UniProt P17948); type: functional;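 further: measured within a kinome-wide profiling panel, FLT1 as the panel member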
[15] = molecular target: BDNF/NT-3 growth factors receptor (Homo sapiens, UniProt Q16620); type: functional;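 further: NTRK2 measured as one member of a broad kinome-wide kinase profiling panel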
[16] = molecular target: Macrophage colony-stimulating factor 1 receptor (Homo sapiens, UniProt P07333); type: functional;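 further: value comes from the Navigating the Kinome screening panel, CSF1R member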
[17] = molecular target: Inhibitor of nuclear factor kappa-B kinase subunit epsilon (Homo sapiens, UniProt Q14164); experiment: Navigating the Kinome. Panel member name: IKBKE; type: functional
[18] = molecular target: Leukocyte tyrosine kinase receptor (Homo sapiens, UniProt P29376); experiment: Navigating the Kinome. Panel member name: LTK; type: functional
[19] = molecular target: Tyrosine-protein kinase receptor TYRO3 (Homo sapiens, UniProt Q06418); type: functional;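 further: TYRO3 value obtained as one member of a kinome-wide profiling panel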
[20] = molecular target: Macrophage-stimulating protein receptor (Homo sapiens, UniProt Q04912); experiment: Navigating the Kinome. Panel member name: MST1R; type: functional
[21] = molecular target: Dual specificity protein kinase CLK4 (Homo sapiens, UniProt Q9HAZ1); type: functional
[22] = molecular target: Glycogen synthase kinase-3 alpha (Homo sapiens, UniProt P49840); type: functional;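 further: GSK3A result taken from a broad kinome-wide kinase panel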
[23] = molecular target: Activated CDC42 kinase 1 (Homo sapiens, UniProt Q07912); experiment: Navigating the Kinome. Panel member name: ACK1; type: functional
[24] = molecular target: Platelet-derived growth factor receptor alpha (Homo sapiens, UniProt P16234); experiment: Navigating the Kinome. Panel member name: PDGFRA; type: functional
[25] = molecular target: Mitogen-activated protein kinase 8 (Homo sapiens, UniProt P45983); type: functional;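 further: value comes from one member of a kinome-wide kinase profiling panel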
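Wherever IC50 is given: cell viability measured after two days of compound exposure.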

Macrophage colony-stimulating factor 1 receptor, sequence (P07333 whole entry): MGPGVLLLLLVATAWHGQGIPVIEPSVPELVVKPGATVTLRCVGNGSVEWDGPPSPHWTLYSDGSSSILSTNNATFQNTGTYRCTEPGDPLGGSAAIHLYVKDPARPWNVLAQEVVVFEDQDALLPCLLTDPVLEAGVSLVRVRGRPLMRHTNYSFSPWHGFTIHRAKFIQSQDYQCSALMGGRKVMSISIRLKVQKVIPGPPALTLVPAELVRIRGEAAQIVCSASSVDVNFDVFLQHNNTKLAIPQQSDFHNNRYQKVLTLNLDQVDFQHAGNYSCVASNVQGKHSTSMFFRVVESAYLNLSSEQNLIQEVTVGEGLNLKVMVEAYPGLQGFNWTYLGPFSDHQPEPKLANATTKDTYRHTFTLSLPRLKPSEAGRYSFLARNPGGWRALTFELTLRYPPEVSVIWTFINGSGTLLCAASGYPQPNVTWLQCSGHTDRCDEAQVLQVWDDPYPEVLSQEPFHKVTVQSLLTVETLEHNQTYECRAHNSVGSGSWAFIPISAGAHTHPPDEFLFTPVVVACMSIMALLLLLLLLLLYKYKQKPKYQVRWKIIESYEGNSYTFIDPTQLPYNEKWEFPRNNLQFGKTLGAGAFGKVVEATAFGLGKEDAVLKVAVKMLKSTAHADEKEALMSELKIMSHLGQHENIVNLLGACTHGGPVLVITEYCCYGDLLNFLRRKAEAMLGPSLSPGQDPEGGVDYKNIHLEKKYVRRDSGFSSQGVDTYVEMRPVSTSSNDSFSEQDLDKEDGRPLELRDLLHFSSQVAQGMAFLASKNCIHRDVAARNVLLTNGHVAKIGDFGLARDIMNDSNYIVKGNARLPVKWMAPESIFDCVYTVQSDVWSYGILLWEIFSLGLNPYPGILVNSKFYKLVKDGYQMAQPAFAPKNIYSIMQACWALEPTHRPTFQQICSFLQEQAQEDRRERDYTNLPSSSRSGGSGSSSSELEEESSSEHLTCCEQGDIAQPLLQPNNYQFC
Glycogen synthase kinase-3 alpha, sequence (P49840 whole entry): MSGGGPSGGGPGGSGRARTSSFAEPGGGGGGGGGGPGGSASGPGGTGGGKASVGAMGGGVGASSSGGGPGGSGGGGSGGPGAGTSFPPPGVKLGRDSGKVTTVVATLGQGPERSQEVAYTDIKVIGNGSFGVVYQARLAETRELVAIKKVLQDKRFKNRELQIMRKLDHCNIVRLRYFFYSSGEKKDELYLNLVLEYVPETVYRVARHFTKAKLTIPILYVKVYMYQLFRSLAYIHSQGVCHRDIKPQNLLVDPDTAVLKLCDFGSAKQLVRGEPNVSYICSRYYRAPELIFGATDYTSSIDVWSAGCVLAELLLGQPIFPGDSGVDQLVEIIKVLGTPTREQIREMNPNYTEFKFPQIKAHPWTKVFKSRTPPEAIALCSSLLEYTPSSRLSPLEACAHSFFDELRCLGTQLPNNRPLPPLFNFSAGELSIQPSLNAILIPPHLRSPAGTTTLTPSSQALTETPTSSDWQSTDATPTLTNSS
Platelet-derived growth factor receptor alpha, sequence (P16234 whole entry): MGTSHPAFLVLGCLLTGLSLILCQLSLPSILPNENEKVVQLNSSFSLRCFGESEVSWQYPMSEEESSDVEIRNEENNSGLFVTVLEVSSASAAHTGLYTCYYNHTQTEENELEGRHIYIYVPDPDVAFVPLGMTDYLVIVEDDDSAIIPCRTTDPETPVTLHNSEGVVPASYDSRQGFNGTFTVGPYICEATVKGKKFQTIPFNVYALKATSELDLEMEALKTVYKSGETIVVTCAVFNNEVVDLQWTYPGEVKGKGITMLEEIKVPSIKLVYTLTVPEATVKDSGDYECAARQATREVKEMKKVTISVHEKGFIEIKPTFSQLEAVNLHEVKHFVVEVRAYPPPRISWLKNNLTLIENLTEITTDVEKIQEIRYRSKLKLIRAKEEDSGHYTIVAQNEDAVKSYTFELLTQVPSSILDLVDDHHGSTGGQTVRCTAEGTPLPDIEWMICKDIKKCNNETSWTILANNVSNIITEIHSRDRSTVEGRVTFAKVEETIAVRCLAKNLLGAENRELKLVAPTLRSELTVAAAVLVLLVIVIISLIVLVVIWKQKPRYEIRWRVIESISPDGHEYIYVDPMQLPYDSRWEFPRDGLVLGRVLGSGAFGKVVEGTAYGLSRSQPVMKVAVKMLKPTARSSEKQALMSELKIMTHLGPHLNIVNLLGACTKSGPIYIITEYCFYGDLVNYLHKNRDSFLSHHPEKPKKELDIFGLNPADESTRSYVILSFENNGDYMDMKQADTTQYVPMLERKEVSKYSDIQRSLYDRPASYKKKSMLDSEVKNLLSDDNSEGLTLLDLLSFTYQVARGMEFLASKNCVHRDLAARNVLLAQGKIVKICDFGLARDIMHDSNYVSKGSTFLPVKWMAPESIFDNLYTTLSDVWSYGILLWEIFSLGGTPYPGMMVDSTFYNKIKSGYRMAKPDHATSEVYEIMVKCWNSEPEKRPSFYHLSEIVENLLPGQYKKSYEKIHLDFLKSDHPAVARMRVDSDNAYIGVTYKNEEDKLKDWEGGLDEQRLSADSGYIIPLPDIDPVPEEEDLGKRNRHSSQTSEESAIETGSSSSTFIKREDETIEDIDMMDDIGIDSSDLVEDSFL
Leukocyte tyrosine kinase receptor, sequence (P29376 whole entry): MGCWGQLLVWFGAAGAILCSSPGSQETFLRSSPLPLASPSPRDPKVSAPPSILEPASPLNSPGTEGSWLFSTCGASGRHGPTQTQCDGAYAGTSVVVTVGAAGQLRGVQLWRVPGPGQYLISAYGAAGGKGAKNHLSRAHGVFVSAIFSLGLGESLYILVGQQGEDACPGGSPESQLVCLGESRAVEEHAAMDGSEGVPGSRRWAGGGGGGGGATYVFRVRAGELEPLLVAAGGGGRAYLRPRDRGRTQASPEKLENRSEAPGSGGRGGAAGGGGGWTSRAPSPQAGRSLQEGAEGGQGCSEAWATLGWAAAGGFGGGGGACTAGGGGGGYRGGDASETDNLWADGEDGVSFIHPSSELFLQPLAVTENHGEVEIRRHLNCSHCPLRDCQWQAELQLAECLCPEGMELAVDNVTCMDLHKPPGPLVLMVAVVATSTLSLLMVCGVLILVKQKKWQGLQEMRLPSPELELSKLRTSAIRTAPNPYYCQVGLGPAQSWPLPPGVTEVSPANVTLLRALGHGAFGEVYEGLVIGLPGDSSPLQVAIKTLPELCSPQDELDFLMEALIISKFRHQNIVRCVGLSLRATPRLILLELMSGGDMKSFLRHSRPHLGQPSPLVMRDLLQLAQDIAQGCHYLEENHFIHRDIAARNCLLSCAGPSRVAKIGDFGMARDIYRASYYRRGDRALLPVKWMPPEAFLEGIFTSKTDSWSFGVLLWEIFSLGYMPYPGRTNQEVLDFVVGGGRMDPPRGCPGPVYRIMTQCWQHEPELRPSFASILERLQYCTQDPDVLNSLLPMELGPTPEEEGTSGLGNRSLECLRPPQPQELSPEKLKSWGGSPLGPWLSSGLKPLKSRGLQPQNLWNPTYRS
Inhibitor of nuclear factor kappa-B kinase subunit epsilon, sequence (Q14164 whole entry): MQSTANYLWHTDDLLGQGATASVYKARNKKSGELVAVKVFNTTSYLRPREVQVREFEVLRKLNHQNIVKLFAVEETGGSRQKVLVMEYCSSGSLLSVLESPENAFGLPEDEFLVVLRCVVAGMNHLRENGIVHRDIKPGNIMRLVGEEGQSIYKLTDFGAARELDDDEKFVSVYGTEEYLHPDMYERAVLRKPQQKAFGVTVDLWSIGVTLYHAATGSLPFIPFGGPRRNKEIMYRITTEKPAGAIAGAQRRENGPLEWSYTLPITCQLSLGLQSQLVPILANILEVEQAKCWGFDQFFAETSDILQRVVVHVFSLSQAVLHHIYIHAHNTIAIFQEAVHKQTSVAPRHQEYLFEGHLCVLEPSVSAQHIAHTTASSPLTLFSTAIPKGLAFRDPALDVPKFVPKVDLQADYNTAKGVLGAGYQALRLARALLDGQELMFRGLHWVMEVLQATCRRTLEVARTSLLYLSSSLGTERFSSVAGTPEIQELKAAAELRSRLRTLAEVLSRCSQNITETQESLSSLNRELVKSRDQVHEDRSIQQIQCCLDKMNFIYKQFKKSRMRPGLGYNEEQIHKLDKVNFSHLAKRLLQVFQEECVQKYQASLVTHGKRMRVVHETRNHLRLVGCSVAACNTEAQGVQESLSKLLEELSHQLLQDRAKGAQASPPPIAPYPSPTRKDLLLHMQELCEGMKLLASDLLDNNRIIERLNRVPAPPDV
Fibroblast growth factor receptor 1, sequence (P11362 whole entry): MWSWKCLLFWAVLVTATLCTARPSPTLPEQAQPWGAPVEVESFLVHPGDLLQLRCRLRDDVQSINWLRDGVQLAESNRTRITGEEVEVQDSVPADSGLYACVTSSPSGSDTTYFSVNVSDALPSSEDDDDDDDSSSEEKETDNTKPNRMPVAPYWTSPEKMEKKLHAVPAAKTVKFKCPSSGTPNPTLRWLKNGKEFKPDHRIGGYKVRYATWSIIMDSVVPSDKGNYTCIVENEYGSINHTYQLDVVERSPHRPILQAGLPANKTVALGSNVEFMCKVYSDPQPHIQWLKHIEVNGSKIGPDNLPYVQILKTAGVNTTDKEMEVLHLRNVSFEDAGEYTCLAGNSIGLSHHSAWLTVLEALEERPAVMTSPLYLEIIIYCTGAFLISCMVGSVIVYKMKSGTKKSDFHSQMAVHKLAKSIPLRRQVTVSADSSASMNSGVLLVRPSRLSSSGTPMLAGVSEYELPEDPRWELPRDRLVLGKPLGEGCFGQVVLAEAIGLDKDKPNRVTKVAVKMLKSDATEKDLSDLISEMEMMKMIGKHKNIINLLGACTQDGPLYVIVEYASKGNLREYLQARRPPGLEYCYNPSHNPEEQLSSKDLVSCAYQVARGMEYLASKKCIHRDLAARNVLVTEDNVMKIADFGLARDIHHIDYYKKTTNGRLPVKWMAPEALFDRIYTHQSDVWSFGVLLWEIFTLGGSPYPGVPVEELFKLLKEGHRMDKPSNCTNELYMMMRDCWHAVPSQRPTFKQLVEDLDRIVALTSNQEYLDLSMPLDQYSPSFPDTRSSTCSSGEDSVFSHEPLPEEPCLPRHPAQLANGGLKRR

Question: For `O=C(NC1=C(NC2CCS(=O)(=O)C2)C(=O)c2ccccc2C1=O)c1ccccc1` (stereo not given), which EC50 [1] is on record?
Answer: 101 nM (active)

Question: For `CCCC(=O)NC(c1ccc(N(C)C)cc1)c1ccc2cccnc2c1O` (stereo not given), which EC50 [2] is on record?
Answer: > 180000 nM (inactive)

Question: What about the EC50 [3] of the same compound?
Answer: > 350000 nM (not active)

Question: What about the EC50 [4] of the same compound?
Answer: 480 nM (active)

Question: What about the AC50 [5] of the same compound?
Answer: 2090 nM (active)

Question: What about the EC50 [6] of the same compound?
Answer: 22900 nM (inconclusive)

Question: And the IC50 [7]?
Answer: 1550 nM (active)

Question: For `O=C1NC(=O)C(c2c[nH]c3ccccc23)=C1c1nc(N2CCNCC2)nc2ccccc12`, which Ki [8] is on record?
Answer: 794 nM (active)

Question: What about the Ki [9] of the same compound?
Answer: > 2510 nM (inactive)

Question: What about the Ki [10] of the same compound?
Answer: > 2000 nM (inactive)

Question: And the Ki [11]?
Answer: 794 nM (active)

Question: What about the Ki [12] of the same compound?
Answer: 1000 nM (active)

Question: What about the Ki [13] of the same compound?
Answer: > 3980 nM (inactive)

Question: And the Ki [14]?
Answer: > 2510 nM (inactive)

Question: And the Ki [15]?
Answer: > 3980 nM (inactive)

Question: And the Ki [16]?
Answer: > 2510 nM (inactive)

Question: What about the Ki [17] of the same compound?
Answer: > 3160 nM (inactive)

Question: And the Ki [18]?
Answer: 794 nM (active)

Question: What about the Ki [19] of the same compound?
Answer: > 2000 nM (inactive)

Question: What about the Ki [20] of the same compound?
Answer: 100 nM (active)

Question: And the Ki [21]?
Answer: > 1580 nM (inactive)

Question: And the Ki [22]?
Answer: 39.8 nM (active)

Question: And the Ki [23]?
Answer: > 3980 nM (inactive)

Question: And the Ki [24]?
Answer: > 2510 nM (inactive)

Question: What about the Ki [25] of the same compound?
Answer: > 5010 nM (inactive)

— ChEMBL document CHEMBL1201862, “PubChem BioAssay data set” (2004)
